Laboratory results from publication PMC5490826 (Viruses, 2017).

Columns and labels:
Type in all cases: binding
NS5B Δ21 1b BK = NS5B Δ21 1b BK (Hepatitis C virus (isolate BK), UniProt P26663); test: SPR (Biacore), kinetic two-state model, immobilized enzyme
NS5B Δ21 1b Con1 [1] = molecular target: T1, NS5B Δ21 1b Con1 (Hepatitis C virus (isolate Con1), UniProt Q9WMX2); test: as above
NS5B Δ21 3a = NS5B Δ21 3a (Hepatitis C virus (isolate NZL1), UniProt Q81258); conditions: read-out: Lomibuvir / 3a (±SD); pH 7.4, 25 °C, 10 mM MgCl2, 130 mM NaCl, 3% DMSO; allosteric, thumb II site
NS5B Δ21 1b Con1 [2] = molecular target: T1, NS5B Δ21 1b Con1; test: differential scanning fluorimetry (SYPRO Orange); conditions: 2 µM protein, 10 µM inhibitor, 50 mM Tris-HCl pH 7.5, up to 2% DMSO; allosteric, palm site; unreliable (text b33 differs from table; not confirmed by SPR)

NS5B Δ21 1b BK, sequence (P26663 2420-2989, stated change not applied): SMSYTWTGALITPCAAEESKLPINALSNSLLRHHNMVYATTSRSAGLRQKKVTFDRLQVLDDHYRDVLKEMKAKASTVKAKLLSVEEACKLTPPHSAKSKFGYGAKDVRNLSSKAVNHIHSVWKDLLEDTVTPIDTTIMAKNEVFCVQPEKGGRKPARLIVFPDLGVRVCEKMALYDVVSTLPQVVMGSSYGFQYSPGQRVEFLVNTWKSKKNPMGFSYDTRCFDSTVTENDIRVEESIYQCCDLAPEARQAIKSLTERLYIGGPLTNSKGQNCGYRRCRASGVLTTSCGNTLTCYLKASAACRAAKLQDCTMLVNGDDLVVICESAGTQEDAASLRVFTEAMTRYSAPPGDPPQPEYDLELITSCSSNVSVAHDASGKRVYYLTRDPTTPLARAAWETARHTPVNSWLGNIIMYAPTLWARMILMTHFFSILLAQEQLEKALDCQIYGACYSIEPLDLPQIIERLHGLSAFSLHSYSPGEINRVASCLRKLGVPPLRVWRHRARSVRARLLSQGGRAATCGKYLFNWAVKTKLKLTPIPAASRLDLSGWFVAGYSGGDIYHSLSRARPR
NS5B Δ21 3a, sequence (Q81258 2431-3000, stated change not applied): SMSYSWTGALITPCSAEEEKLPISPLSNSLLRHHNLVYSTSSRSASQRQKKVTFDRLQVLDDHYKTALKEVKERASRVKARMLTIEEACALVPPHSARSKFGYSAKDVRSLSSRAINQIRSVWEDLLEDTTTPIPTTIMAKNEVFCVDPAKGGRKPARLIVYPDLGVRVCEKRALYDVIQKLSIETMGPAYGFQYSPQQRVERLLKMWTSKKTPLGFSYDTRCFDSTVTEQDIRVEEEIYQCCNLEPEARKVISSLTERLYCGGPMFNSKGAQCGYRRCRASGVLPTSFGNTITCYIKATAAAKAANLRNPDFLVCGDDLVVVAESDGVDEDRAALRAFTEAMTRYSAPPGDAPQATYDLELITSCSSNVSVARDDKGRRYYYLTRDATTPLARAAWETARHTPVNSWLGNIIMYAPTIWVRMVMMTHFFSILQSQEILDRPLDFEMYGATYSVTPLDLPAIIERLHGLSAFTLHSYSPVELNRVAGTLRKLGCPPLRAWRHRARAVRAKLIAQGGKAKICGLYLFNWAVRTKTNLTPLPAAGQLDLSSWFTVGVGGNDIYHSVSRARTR

Row | Compound | Kd (NS5B Δ21 1b BK) | Kd (NS5B Δ21 1b Con1 [1]) | Kd (NS5B Δ21 3a) | 1b Con1 / ΔTm (NS5B Δ21 1b Con1 [2])
1 | CC(C)(C)C#Cc1cc(N(C(=O)[C@H]2CC[C@H](C)CC2)[C@H]2CC[C@H](O)CC2)c(C(=O)O)s1 [lomibuvir] | 20 ± 0.4 nM | 19 ± 7 nM | > 2000 nM | –
2 | CNC(=O)c1c(-c2ccc(F)cc2)oc2cc(N(CCO)S(C)(=O)=O)c(C3CC3)cc12 [nesbuvir] | – | – | – | 5 °C
